System: Plasmodium falciparum
Assay: GSK_TCMDC: Inhibition of Plasmodium falciparum 3D7 in whole erythrocytes, using parasite LDH activity as an index of growth.
Type: functional, organism-based
Settings: Plasmodium falciparum, 3D7

`CCN(CC)CCN(Cc1ccc(-c2ccc(C(F)(F)F)cc2)cc1)C(=O)Cn1c(CCc2ccc(F)c(F)c2F)nc(=O)c2ccccc21` and `CCN(CC)CCN(Cc1ccc(-c2ccc(C(F)(F)F)cc2)cc1)C(=O)Cn1nc(-c2ccc(C(F)(F)F)cc2)ccc1=O` are within 1.5-fold of each other in XC50: 795 nM for the first, 797 nM for the second.

`CN(C)CCOc1ccc2c(=O)cc(CCc3cccc(F)c3F)n(CC(=O)N(C)Cc3ccc(-c4ccc(C(F)(F)F)cc4)cc3)c2c1` and `COc1ccc(CN(C)CCCSc2ccc(NC(=O)c3cccc4c(=O)cc(-c5ccccc5)[nH]c34)cc2)cc1OC` are within 1.5-fold of each other in XC50: 1200 nM for the first, 920 nM for the second.

`O=C(/C=C/c1ccc(Cl)c(Cl)c1)NCCCCCN1CCCN(C(=O)Nc2ccc(Cl)c(C(F)(F)F)c2)CC1` and `O=C(/C=C/c1ccc(Cl)c(Cl)c1)NCCCCCN1CCC(NC(=O)c2ccc3ccccc3c2)CC1` are within 1.5-fold of each other in XC50: 730 nM for the first, 1020 nM for the second.

Compared with `N=C(N)c1ccc(-c2cc(-c3cccc(C(=N)N)c3)on2)cc1`, `CN(C)CCOc1ccc(-c2cc(-c3ccnc(N)n3)c(-c3ccc(Cl)c(O)c3)o2)cc1` is 71-fold higher in XC50: 13.8 nM for the first, 978 nM for the second.

Going from `CCCCCCCCc1c(C)[nH]c(C)c(Cl)c1=O` to `Cc1ccc2[nH]c(C)c(Br)c(=O)c2c1`, the XC50 rises from 229 nM to 812 nM (3.5-fold).

`Cc1cccc2nc(-c3cccc(-c4cccc(CNCc5cccc(N)c5)c4)c3)[nH]c12` and `Nc1cccc(CNCc2cccc(-c3cccc(-c4nc5cc(C(F)(F)F)ccc5[nH]4)c3)c2)c1` are within 1.5-fold of each other in XC50: 543 nM for the first, 510 nM for the second.

`Cc1ccc(NC(=O)Nc2ccc(Cl)cc2)cc1-c1ccc(C(=O)Nc2ccncc2)cc1` and `CN(C)C(CNC(=O)c1cc(-c2ccncc2)c(-c2ccc(NC(=O)Nc3ccccc3)cc2)o1)c1ccccc1` (stereo not given) are within 1.5-fold of each other in XC50: 534 nM for the first, 603 nM for the second.

`Cc1ccc(NC(=O)c2ccc3ncccc3c2)cc1OC1CCN(Cc2ccc(F)cc2)C1` (stereo not given) and `O=C(Nc1ccc(OC2CCN(Cc3ccco3)C2)c(Cl)c1)c1ccc2ncccc2c1` (stereo not given) are within 1.5-fold of each other in XC50: 1360 nM for the first, 1080 nM for the second.

Compared with `CCCOc1cc(O)c(-c2[nH]nc(C)c2Oc2ccccc2)cc1CC`, `COc1ccc2nc(C)cc(NCc3cccc4ccccc34)c2c1` is 4.9-fold lower in XC50: 1070 nM for the first, 217 nM for the second.

`CN(C)c1ccc(-c2ccc(C(=O)NC3CCN(Cc4ccc(F)cc4)CC3)s2)cc1` and `CN1CCC(NCc2ccc(-c3ccc(S(=O)(=O)NCc4ccccc4)s3)cc2)CC1` are within 1.5-fold of each other in XC50: 1050 nM for the first, 765 nM for the second.

`O=S(=O)(Nc1ccc(CCN2CCC(N3CCCCC3)CC2)cc1)c1ccccc1C(F)(F)F` and `Cn1nc(-c2ccc(S(=O)(=O)N3CCC(CN4CCC(c5c[nH]c6ccccc56)CC4)CC3)s2)cc1C(F)(F)F` are within 1.5-fold of each other in XC50: 1020 nM for the first, 1090 nM for the second.

`Cc1cc(N2CCCC2)nc(Nc2ccc(NC(=O)c3ccc4c(c3)OCO4)cc2)n1` and `Cc1cc(N(C)C)nc(Nc2ccc(NC(=O)c3ccc(Br)o3)cc2)n1` are within 1.5-fold of each other in XC50: 815 nM for the first, 1050 nM for the second.

Going from `CCOc1ccc(NC(C)=O)c(O)c1` to `CC[C@H]1CN2CC[C@H]1C[C@@H]2[C@@H](O)c1ccnc2ccc(OC)cc12`, the XC50 falls from 843 nM to 119 nM (7.1-fold).

Compared with `CC1CN(Cc2csc(Nc3ccccc3)n2)CC(C)O1` (stereo not given), `CC1CN(Cc2cccc(C#N)c2)CCN1c1ccc(NC(=O)c2cccs2)cc1` (stereo not given) is 1.5-fold lower in XC50: 1020 nM for the first, 675 nM for the second.

Compared with `CCOc1c(C)cc(C(F)(F)F)cc1CNCCCNc1cc(=O)c2ccccc2[nH]1`, `CCCCCCNc1cc(C)nc(NC(=N)Nc2cccc(C(F)(F)F)c2)n1` is 4.6-fold higher in XC50: 161 nM for the first, 739 nM for the second.

First: COc1ccc2nccc([C@@H](O)CN3CCC(NCc4cc5oc(=O)[nH]c5cc4F)CC3)c2c1
Second: CN1CCN(Cc2ccc(-c3ccc4c(Nc5ccc(Cl)cc5F)ccnc4c3)o2)CC1
The XC50 of the first is 5-fold higher: 774 nM for the first, 155 nM for the second.

Compared with `CC(Cc1ccc(SC(C)(C)C)cc1)NCC(O)c1cccc(Cl)c1` (stereo not given), `C[C@H](Cc1ccc(OCCCCCCOc2ccccc2)cc1)NC[C@H](O)c1cccc(Cl)c1` is 4.5-fold lower in XC50: 317 nM for the first, 70.4 nM for the second.

Compared with `Cc1ccn2cc(-c3ccc(NC(=O)c4ccc(Br)o4)cc3)nc2c1`, `Cn1nccc1C(=O)NCCNCc1ccc(-c2ccc(-c3nc4cc(F)ccc4[nH]3)cc2)cc1` is 2.5-fold lower in XC50: 741 nM for the first, 297 nM for the second.

Going from `O=C(Nc1ccnc(N2CC3CC2CN3Cc2cccc(O)c2)c1)c1ccc(F)cc1` (stereo not given) to `COc1ccc(-c2cccc(NC(=O)c3ccc(Cl)cc3)c2)cc1CN1CCCC1`, the XC50 falls from 1240 nM to 778 nM (1.6-fold).

`c1ccc(-n2cncn2)cc1` and `N#Cc1ccc2[nH]c(-c3ccccc3)nc2c1` are within 1.5-fold of each other in XC50: 591 nM for the first, 698 nM for the second.

`COc1ccccc1N1CCN(CCCCNC(=O)c2ccc(NC(=O)c3ccc4ccccc4c3)cc2)CC1` and `CCOc1ccccc1N1CCN(CCCNC(=O)/C(=C/C=C/c2cc3cc(Cl)c(Cl)cc3[nH]2)OC)CC1` are within 1.5-fold of each other in XC50: 800 nM for the first, 851 nM for the second.

Compared with `Cc1nc2nc(N)nc(N)c2c(C)c1Cc1ccc(C(N)=O)cc1`, `COc1cccc(Cc2c(C)nc3nc(N)nc(N)c3c2C)c1` is 1.7-fold higher in XC50: 530 nM for the first, 879 nM for the second.

Going from `CCc1cc2c(Sc3nc4ccccc4[nH]3)ncnc2s1` to `CC(C)Cc1cn(-c2nc(-c3nc4ccccc4[nH]3)cs2)c2cc(Cl)ccc12`, the XC50 falls from 823 nM to 483 nM (1.7-fold).

Going from `CCOc1cccc(C2c3c(oc4ccccc4c3=O)C(=O)N2CCN(CC)CC)c1` (stereo not given) to `CCN(CC)CCNc1ccnc2[nH]c3ccc(Cl)cc3c12`, the XC50 falls from 746 nM to 245 nM (3-fold).

`COc1ccc(NC(=O)[C@H](Cc2ccccc2)Nc2cc(C)nc(NCCc3ccccn3)n2)cc1` and `Cc1cc(NCCC(=O)NCCc2ccccc2)nc(NCCc2ccc(F)cc2)n1` are within 1.5-fold of each other in XC50: 834 nM for the first, 1080 nM for the second.

Going from `COc1cc(COc2c(C)nc(N)nc2N)cc(OC)c1OC` to `Cc1ccc(-c2ccc(Cl)cc2Oc2cnc(N)nc2N)o1`, the XC50 rises from 332 nM to 1080 nM (3.3-fold).

`CCn1c(-c2nonc2N)nc2c(-c3cccc(NC(=O)Nc4cccc(C#N)c4)c3)ncc(OCCCN)c21` and `CN(C)CCOc1ccc(-n2c(-c3nonc3N)nc3cncc(-c4ccc(F)cc4)c32)cc1` are within 1.5-fold of each other in XC50: 669 nM for the first, 866 nM for the second.

First: CNC(=O)NC1=NC(C)(C)N(OCCCOc2cc(Cl)c(Cl)cc2Cl)C(N)=N1
Second: CC(CON1C(N)=NC(N)=NC1(C)C)c1ccc(Cl)cc1Cl (stereo not given)
The XC50 of the first is 290-fold higher: 935 nM for the first, 3.2 nM for the second.

Going from `Cc1[nH]c(C)c(-c2ccc(-c3cc(C(F)(F)F)cc(C(F)(F)F)c3)nc2)c(=O)c1Br` to `Cc1ccc2c(=NN=Cc3cccc(F)c3)cc(C)[nH]c2c1`, the XC50 rises from 81.4 nM to 857 nM (11-fold).

`Cc1cccc2nc(-c3cccc(-c4cccc(NC(=O)c5cnn6cccnc56)c4)c3)[nH]c12` and `NC(=O)c1ccc(NCC(=O)Nc2cccc(-c3cccc(-c4nc5cc(F)ccc5[nH]4)c3)c2)cc1` are within 1.5-fold of each other in XC50: 671 nM for the first, 867 nM for the second.

`NC1CCCN(Cc2cccc(-c3ccc(-c4nc5ccccc5[nH]4)cc3)c2)C1` (stereo not given) and `NC1CCCN(Cc2ccc(-c3cccc(-c4nc5cc(F)ccc5[nH]4)c3)cc2)C1` (stereo not given) are within 1.5-fold of each other in XC50: 722 nM for the first, 640 nM for the second.

`Cc1ccc(Nc2ccnc3cc(-c4nccs4)ccc23)cc1C(O)c1ccccc1` (stereo not given) and `COCCNCc1ncsc1-c1ccc2c(Nc3cc(O)ccc3C)ccnc2c1` are within 1.5-fold of each other in XC50: 735 nM for the first, 705 nM for the second.

Compared with `CC(C)NCc1ccc(OCc2cccc(COc3ccc(CNC(C)C)cc3I)c2)c(I)c1`, `CCc1c[nH]c2c(N3CCCCC3=O)cc(C(=O)N[C@@H](Cc3ccccc3)[C@H](O)CNCc3cccc(OC)c3)cc12` is 1.8-fold higher in XC50: 92 nM for the first, 169 nM for the second.

`CCc1ccc(CN2CCC(CN(c3ccc(N4CCOCC4)c(F)c3)S(=O)(=O)c3ccc(C(C)(C)CC)cc3)CC2)cc1` and `O=C(NC1CCCCC1)N(Cc1ccc(-c2ccc(CNCc3ccc4c(c3)OCO4)cc2)cc1)C1CCN(Cc2ccccc2)CC1` are within 1.5-fold of each other in XC50: 706 nM for the first, 690 nM for the second.

`COc1ccc(-c2cccc(NC(=O)c3cccc(Cl)c3)c2)cc1CN1CCC(O)CC1` and `O=C(NCCCCCN1CCC(c2c[nH]c3ccccc23)CC1)Nc1cccc(Cl)c1` are within 1.5-fold of each other in XC50: 791 nM for the first, 1020 nM for the second.

First: Cc1cccc2nc(-c3ccc(-c4ccc(CN5CCN(c6ccc(C#N)cn6)CC5)cc4)s3)[nH]c12
Second: Cc1cccc2nc(-c3ccc(-c4ccc(CNCCc5ccncc5)cc4)cc3)[nH]c12
The XC50 of the first is 5.4-fold higher: 1130 nM for the first, 208 nM for the second.

Compared with `COc1ccc(-c2ccc3c(-c4cccc(S(C)(=O)=O)c4)cnc(N)c3c2)cc1`, `CS(=O)(=O)CCNCc1ccc(-c2ccc3c(Nc4ccc(Cl)cc4F)ccnc3c2)o1` is 2-fold lower in XC50: 1330 nM for the first, 668 nM for the second.

Going from `CCCC(C)Nc1nc(C)cc(NCCC(=O)Nc2ccc(OC)cc2)n1` (stereo not given) to `Cc1cc(Nc2ccc(C)c(C)c2)n2nc(C)nc2n1`, the XC50 falls from 1380 nM to 599 nM (2.3-fold).

`Cc1cc(-c2ccc(NC(=O)N3CCc4cc(Cl)c(N5CCN(C)CC5)cc43)cc2)ccc1C#N` and `Cc1cccc(NC(=O)c2cnc(N3CCN(c4ccncc4)CC3)c(Cl)c2)c1` are within 1.5-fold of each other in XC50: 589 nM for the first, 678 nM for the second.

Compared with `CC(C)c1nc(N2CCN(C(=S)NCc3ccccc3)CC2)c(C#N)c2c1COC(C)(C)C2`, `CC(C)Sc1nc2c(c(=O)n1Cc1ccco1)C1(CCCC1)Cc1ccccc1-2` is 11-fold higher in XC50: 142 nM for the first, 1630 nM for the second.

`N#CC1(CCCNCCc2ccc(O)cc2)CCCc2c(O)cccc21` (stereo not given) and `COc1ccc(-n2nc(C(=O)NCCC3=CCCCC3)c3ccccc3c2=O)cc1` are within 1.5-fold of each other in XC50: 763 nM for the first, 682 nM for the second.

`C#Cc1cccc(NC(=O)[C@H](CC2CCCCC2)Nc2ccc(C#N)c3ccccc23)c1` and `O=C(Nc1cccc([N+](=O)[O-])c1)N(Cc1ccc(Cl)c(Cl)c1)C1CCNCC1` are within 1.5-fold of each other in XC50: 588 nM for the first, 719 nM for the second.

Compared with `CCCc1cc(Cc2cnc(N)nc2N)ccc1OCCCCCC(=O)O`, `CCCCc1ccc(-c2c(N)nc(N)nc2CC)cc1` is 1.7-fold higher in XC50: 577 nM for the first, 954 nM for the second.

First: CN(C)C(=S)N/N=C1/C(=O)Nc2ccccc21
Second: CC(C)(C)c1ccccc1OCCCON1C(=N)N=C(N)NC1(C)C
The XC50 of the first is 330-fold higher: 1050 nM for the first, 3.2 nM for the second.

Going from `COCCNC(=O)c1ccc(OC2CCN(CC(C)=Cc3ccccc3)CC2)c(Cl)c1` to `COc1ccccc1C1CC(c2ccccc2)=NN1C(=O)c1ccco1` (stereo not given), the XC50 falls from 652 nM to 397 nM (1.6-fold).

Compared with `C[C@@H](CC1CCCCC1)OC(=O)N(C)[C@@H]1CCN(C#N)C1`, `CCC[C@@H]([C@@H](CC1CCCCC1)C(=O)N[C@@H](CCOC(=O)NCC)C(=O)Nc1nccs1)N(O)C=O` is 7.6-fold lower in XC50: 621 nM for the first, 81.8 nM for the second.

Going from `CC1(C)N=C(N)N=C(N)N1c1cccc(I)c1` to `Cc1ccc(C(=O)Nc2cccc([N+](=O)[O-])c2)cc1S(=O)(=O)N1CC(C)CC(C)C1` (stereo not given), the XC50 rises from 126 nM to 794 nM (6.3-fold).

`O=C(Nc1cccc(C(F)(F)F)c1)Nc1nc2ccc([N+](=O)[O-])cc2s1` and `Cc1c(S(=O)(=O)Nc2ccc3nccc(N4CC(C)NC(C)C4)c3c2)sc2ccc(Cl)cc12` (stereo not given) are within 1.5-fold of each other in XC50: 687 nM for the first, 1020 nM for the second.

`CC[C@@]1(O)C(=O)OCc2c1cc1n(c2=O)Cc2c-1nc1cc3c(cc1c2CN1CCOCC1)OCO3` and `COc1cc(OC)cc(-c2nn(-c3ccc([N+](=O)[O-])cc3Cl)c(=S)n2CC2CCCO2)c1` (stereo not given) are within 1.5-fold of each other in XC50: 965 nM for the first, 961 nM for the second.

Going from `CCCCOc1ccc(CNCCCCCCNCc2ccc(OCCCC)c3ccccc23)c2ccccc12` to `N=C1NC(=N)N(OCCCCCCON2C(=N)NC(=N)NC2C=Cc2ccccc2)C(C=Cc2ccccc2)N1` (stereo not given), the XC50 falls from 1130 nM to 615 nM (1.8-fold).
